Results reported in article PMC8000724, “Trans-Epithelial Transport, Metabolism, and Biological Activity Assessment of the Multi-Target Lupin Peptide [sequence] (P5) and Its Metabolite [sequence] (P5-Met)” (Nutrients, 2021).
No end group written: not given here.

What was measured:
[1] = test system: differentiated Caco-2 cells (AP membrane peptidases); test: Metabolites of P5 produced by Caco-2 cell peptidases, MS analysis of AP solutions; assay type: in vitro ADME, human; design: key to Metabolite of P5 identified in the AP compartment: Mixture / Metabolite of P5 identified in the AP compartment: Alone: x, detected; n.d., not detected; settings: P5 incubated in mixture with P3 and P7 (500 μM each), Caco-2, end of incubation 120 min
Description: (§1) Prior to experiments, the cell monolayer integrity and differentiation were checked by TEER measurement as described in detail above. Peptide trans-epithelial passage was assayed in differentiated Caco-2 cells in transport buffer solution (137 mM NaCl, 5.36 mM KCl, 1.26 mM CaCl2, and 1.1 mM MgCl2, 5.5 mM glucose) according to previously described conditions. In order to reproduce the pH conditions existing in vivo in the small intestinal mucosa, the apical (AP) solutions were maintained at pH 6.0 (buffered with 10 mM morpholinoethane sulfonic acid), and the basolateral (BL)solutions were maintained at pH 7.4 (buffered with 10 mM […]). Prior to transport experiments, cells were washed twice with 500 µL PBS containing Ca^++ and Mg^++. Peptide transportation by mature Caco-2 cells was assayed by loading the AP compartment with P5 alone, in mixture with […] (P3) and […] (P7), and/or P5-met (500 μM) in the AP transport solution (500 µL) and the BL compartment with the BL transport solution (700 µL). The plates were incubated at 37 °C and the BL solutions were collected at different time points (i.e., 15, 30, 60, 90, and 120 min) and replaced with fresh solutions pre-warmed at 37 °C. All BL and AP solutions collected at the end of the transport experiment were stored at −80 °C prior to analysis. Three independent transport experiments were performed, each in duplicate. In order to assess the involvement of transcytotic process in peptides passage, parallel transport experiments were performed in the presence of 500 nM wortmannin in both the AP and BL compartment, over 60 min incubation time.
The medium collected at the end of transport experiments from AP and BL chambers (500 µL and 700 µL, respectively) were freeze-dried and residues were solubilized in HPLC water (100 µL). Samples were desalted with C18 resin ZipTip by using 80% ACN, 0.1% FA as eluent (Millipore Corporation, Bedford, MA, USA). Each sample was lyophilized under speed-vacuum for 5 h at 30°C and re-dissolved in 50 μL (0.1% formic acid), before MS analysis. Purified BL samples were analyzed on a SL IT mass spectrometer interfaced with a HPLC- Chip Cube source (Agilent Technologies, Palo Alto, CA, USA). Data were processed with MSD Trap control 4.2, and Data analysis 4.2 version (Agilent Technologies, Palo Alto, CA, USA). The chromatographic separation was performed using a 1200 HPLC system equipped with a binary pump. […] Specifically, The monitored MRM transitions of P5-met were from the mono-charged precursor ion [M^+H]^+ (m/z 882.43) to product-ions m/z 678.3 and 407.1, respectively. […]

[2] = target: T1, HMGCoAR (catalytic domain) (Homo sapiens, UniProt P04035); test: HMGCoAR activity assay; assay type: biochemical
T1 construct: finally the HMGCoAR (catalytic domain) (2 µL); purchased Sigma-Aldrich
T1 sequence (P04035 340-888 limits assumed): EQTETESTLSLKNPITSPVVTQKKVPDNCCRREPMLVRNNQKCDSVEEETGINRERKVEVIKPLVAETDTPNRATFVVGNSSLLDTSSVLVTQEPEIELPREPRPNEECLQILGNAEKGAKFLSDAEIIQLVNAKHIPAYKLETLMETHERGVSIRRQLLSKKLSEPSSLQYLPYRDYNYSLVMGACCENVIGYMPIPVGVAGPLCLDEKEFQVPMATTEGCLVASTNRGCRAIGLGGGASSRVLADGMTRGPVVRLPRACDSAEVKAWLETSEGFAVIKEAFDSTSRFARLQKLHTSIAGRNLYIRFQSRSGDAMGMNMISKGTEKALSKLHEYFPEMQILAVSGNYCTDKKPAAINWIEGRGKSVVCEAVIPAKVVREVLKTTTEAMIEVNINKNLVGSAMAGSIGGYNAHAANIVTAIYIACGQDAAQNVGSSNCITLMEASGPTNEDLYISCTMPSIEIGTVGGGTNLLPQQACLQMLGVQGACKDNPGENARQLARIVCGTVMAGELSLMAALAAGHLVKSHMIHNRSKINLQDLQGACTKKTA
Description: The experiments were carried out following the manufacturer instructions and optimized protocol. The assay buffer, NADPH, substrate solution, and HMGCoAR were provided in the HMGCoAR Assay Kit (Sigma Aldrich SRL, Milan, Italy). The experiments were carried out following the manufacturer instructions at 37 °C. In particular, each reaction (200 µL) was prepared adding the reagents in the following order: 1× assay buffer, a 10–500 µM doses of P5 and P5-met or vehicle (C), the NADPH (4 µL), the substrate solution (12 µL), and finally the HMGCoAR (catalytic domain) (2 µL). Subsequently, the samples were mixed and the absorbance at 340 nm read by the microplate reader Synergy H1 (Winooski, VT, USA) at time 0 and 10 min. The HMGCoAR-dependent oxidation of NADPH and the inhibition properties of peptides were measured by absorbance reduction, which is directly proportional to enzyme activity.

[3] = test system: differentiated Caco-2 cells; test: Trans-epithelial transport across differentiated Caco-2 cell monolayer; assay type: in vitro ADME, human
Description: Human intestinal Caco-2 cells, obtained from INSERM (Paris, France), where cultured according to a published protocol. For differentiation, they were seeded on polycarbonate filters, 12 mm diameter, 0.4 µm pore diameter (Transwell, Corning Inc., Lowell, MA, US) at a 3.5 × 10^5 cells/cm^2 density in complete medium supplemented with 10% FBS in both AP and BL compartments for 2 d to allow the formation of a confluent cell monolayer. Starting from day three after seeding, cells were transferred to FBS-free medium in both compartments, supplemented with ITS (final concentration 10 mg/L insulin (I), 5.5 mg/L transferrin (T), 6.7 μg/L sodium selenite (S); GIBCO-Invitrogen, San Giuliano Milanese, Italy) only in the basolateral (BL) compartment, and allowed to differentiate for 18–21 days with regular medium changes three times weekly.
The transepithelial electrical resistance (TEER) of differentiated Caco-2 cells was measured at 37 °C using the voltmeter apparatus Millicell (Millipore Co., Billerica, MA, USA), immediately before and at the end of the transport experiments. In addition, at the end of transport experiments, cells were incubated from the AP side with 1 mM phenol-red in PBS containing Ca^++ (0.9 mM) and Mg^++ (0.5 mM) for 1 h at 37 °C, to monitor the paracellular permeability of the cell monolayer. The BL solutions were then collected and NaOH (70 µL, 0.1 N) was added before reading the absorbance at 560 nm by a microplate reader Synergy H1 from Biotek (Winooski, VT, USA). Phenol-red passage was quantified using a standard phenol-red curve. Only filters showing TEER values and phenol red passages similar to untreated control cells were considered for peptide transport analysis.
as §1
The medium collected at the end of transport experiments from AP and BL chambers (500 µL and 700 µL, respectively) were freeze-dried and residues were solubilized in HPLC water (100 µL). Samples were desalted with C18 resin ZipTip by using 80% ACN, 0.1% FA as eluent (Millipore Corporation, Bedford, MA, USA). Each sample was lyophilized under speed-vacuum for 5 h at 30°C and re-dissolved in 50 μL (0.1% formic acid), before MS analysis. Purified BL samples were analyzed on a SL IT mass spectrometer interfaced with a HPLC- Chip Cube source (Agilent Technologies, Palo Alto, CA, USA). […]

## ILPKHSDAD [Peptide P5-frag, minor metabolite of P5, loss of the N-terminal leucine]
[1]
  Metabolite of P5 identified in the AP compartment: Mixture: x

## LILPKHSDAD [Peptide P5]
[2]; 10-500 µM peptide, 37 °C, NADPH absorbance 340 nm at 0 and 10 min
  IC50: 147 µM
[3]; 500 nM wortmannin in AP and BL compartments, 60 min, HPLC-Chip MS of BL compartment
  Effect of the transcytosis inhibitor wortmannin on transport across Caco-2 cells: significantly impairs the transport
[3]; Caco-2 AP to BL, 2 h, 500 μM
  Amount in BL compartment, mixture versus alone: about 3.5 fold
[3]; in mixture with other lupin peptides (P3, P7), Caco-2 AP to BL, 500 μM
  Transport rate across Caco-2 monolayer: 8.9 ± 0.4 ng/(mL × min)
[3]; tested alone, 500 μM in AP, Caco-2 AP to BL, 2 h, conversion of the μg value
  Amount in the BL compartment at the end of incubation (2 h): 0.271 nmol
[3]; tested alone, 500 μM in AP, Caco-2 AP to BL, AP pH 6.0 / BL pH 7.4, 37 °C, 2 h, HPLC-Chip MS, mean ± SD
  Amount in the BL compartment at the end of incubation (2 h): 0.3 ± 0.02 µg
[3]; tested alone, 500 μM in AP, Caco-2 AP to BL, AP pH 6.0 / BL pH 7.4, 37 °C, HPLC-Chip MS, mean ± SD
  Amount in the BL compartment after 60 min: 0.20 ± 0.02 µg
[3]; tested alone, Caco-2 AP to BL, 500 μM
  Transport rate across Caco-2 monolayer: 1.8 ± 0.3 ng/(mL × min)
[3]; tested in mixture with P3 and P7, each 500 μM in AP, Caco-2 AP to BL, 2 h, conversion of the μg value
  Amount in the BL compartment at the end of incubation (2 h): 0.99 nmol
[3]; tested in mixture with P3 and P7, each 500 μM in AP, Caco-2 AP to BL, AP pH 6.0 / BL pH 7.4, 37 °C, 2 h, HPLC-Chip MS, mean ± SD
  Amount in the BL compartment at the end of incubation (2 h): 1.1 ± 0.2 µg

## CC[C@H](C)C(=O)O[C@H]1C[C@H](O)C=C2C=C[C@H](C)[C@H](CC[C@@H](O)C[C@@H](O)CC(=O)O)[C@H]21 [pravastatin, reference compound]
[2]; 1.0 µM, positive control
  Reduction of HMGCoAR enzyme activity: 82.0%
